Measured values taken from patent publication US20250388565A1, “ESTROGEN RECEPTOR ALPHA DEGRADERS AND METHODS OF USE THEREOF” (Relay Therapeutics, Inc., priority 2022, published 2025).

Target: T1, ERα protein (HiBiT-tagged) in ESR1_HiBiT KI MCF7 cells (Homo sapiens, UniProt P03372)
T1 sequence (P03372 1-595): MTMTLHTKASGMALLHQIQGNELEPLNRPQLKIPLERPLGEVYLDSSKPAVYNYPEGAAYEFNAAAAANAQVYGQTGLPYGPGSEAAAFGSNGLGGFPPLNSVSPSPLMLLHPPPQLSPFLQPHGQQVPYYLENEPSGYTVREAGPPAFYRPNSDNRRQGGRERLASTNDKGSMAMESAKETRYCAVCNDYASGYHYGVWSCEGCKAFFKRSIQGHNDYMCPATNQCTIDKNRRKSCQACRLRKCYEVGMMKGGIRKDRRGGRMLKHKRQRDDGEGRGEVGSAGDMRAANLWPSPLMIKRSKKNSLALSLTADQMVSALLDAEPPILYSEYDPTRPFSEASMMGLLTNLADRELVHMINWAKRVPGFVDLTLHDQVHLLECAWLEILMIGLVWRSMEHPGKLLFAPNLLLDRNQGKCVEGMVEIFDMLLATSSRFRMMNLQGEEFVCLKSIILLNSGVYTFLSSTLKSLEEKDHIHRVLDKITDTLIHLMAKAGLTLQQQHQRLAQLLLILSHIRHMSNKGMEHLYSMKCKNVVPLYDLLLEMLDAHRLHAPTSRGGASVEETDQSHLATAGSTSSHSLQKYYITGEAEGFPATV
Assay: Nano Glo HiBiT Lytic Degradation Assay
Type: cell-based
Conditions: 6 hours with compound, 14-point dose response 1:3, bell-shape curve fit, half-maximal effect of first Hill model, read-out: MCF7 ESR1 HiBiT - (DC50)
Outline: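 Lytic Nano-Glo HiBiT luminescence quantified ERα remaining after a 6 h, 37° C compound exposure of MCF7 cells carrying endogenous HiBiT-tagged ESR1. Dosing used 14 threefold dilutions from a 10 mM DMSO stock (0.1% DMSO final), run in duplicate. Signals were corrected for cell-free background and expressed relative to DMSO, and DC50 came from a bell-shaped curve fit (first Hill model half-maximum).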

Compound	DC50 [nM]
NC(=O)C(CCC(=O)O)N1Cc2cc(N3CCN(CC4CCN(c5ccc([C@@H]6c7ccc(O)cc7CO[C@@H]6c6ccccc6)cc5)CC4)CC3)ccc2C1=O (stereo partly drawn) [Compound I-399]	≥ 10000
NC(=O)CCC(C(=O)O)N1Cc2cc(N3CCN(CC4CCN(c5ccc([C@@H]6c7ccc(O)cc7CO[C@@H]6c6ccccc6)cc5)CC4)CC3)ccc2C1=O (stereo partly drawn) [Compound I-400]	7.75
COc1cc(N2CCC(CN3CCN(c4ccc5c(c4)CN([C@H]4CCC(=O)NC4=O)C5=O)CC3)CC2)c(-c2ccccc2)cc1[C@@H]1CCC(F)(F)c2cc(O)ccc21 [Compound I-405, (S)-3-(5-(4-((1-(5-((R)-4,4-difluoro-6-hydroxy-1,2,3,4-tetrahydronaphthalen-1-yl)-4-methoxy-[1,1′-biphenyl]-2-yl)piperidin-4-yl)methyl)piperazin-1-yl)-1-oxoisoindolin-2-yl)piperidine-2,6-dione]	1100
COc1cc(N2CCC(CN3CCN(c4ccc5c(c4)CN([C@H]4CCC(=O)NC4=O)C5=O)CC3)CC2)c(-c2ccccc2)cc1[C@H]1CCC(F)(F)c2cc(O)ccc21 [Compound I-406]	25
O=C1CC[C@H](N2Cc3cc(N4C[C@@H]5C[C@H]4CN5CC4CCN(c5ccc([C@@H]6c7ccc(O)cc7CC[C@@H]6c6ccccc6)cc5)CC4)ccc3C2=O)C(=O)N1 [II-7]	≥ 10000
O=C1CC[C@H](N2Cc3cc(N4C[C@@H]5C[C@H]4CN5CC4CCN(c5ccc([C@H]6c7ccc(O)cc7CC[C@H]6c6ccccc6)cc5)CC4)ccc3C2=O)C(=O)N1 [II-8]	≥ 10000
O=C1CC[C@H](N2Cc3cc(N4CCN(C5CCN(c6ccc([C@H]7c8ccc(O)cc8CC[C@H]7c7ccccc7)cc6)CC5)CC4)ccc3C2=O)C(=O)N1 [II-30]	100
COc1ccc2c(c1)CC[C@H](c1ccccc1)[C@@H]2c1ccc(N2CCC(CN3CCN(c4ccc5c(c4)CN([C@H]4CCC(=O)NC4=O)C5=O)CC3)CC2)cc1 [II-59]	≥ 10000
O=C1CC[C@H](N2Cc3cc(N4CCN(CC5CCN(c6ccc([C@@H]7c8ccc(Cl)cc8CC[C@@H]7c7ccccc7)cc6)CC5)CC4)ccc3C2=O)C(=O)N1 [II-60]	≥ 10000
O=C1CC[C@H](N2Cc3cc(N4CCN(CC5CCN(c6ccc([C@@H]7c8ccc(Br)cc8CC[C@@H]7c7ccccc7)cc6)CC5)CC4)ccc3C2=O)C(=O)N1 [II-62]	≥ 10000
O=C1CC[C@H](N2Cc3cc(N4CCN(CC5CCN(c6ccc([C@@H]7c8ccc(O)c(Cl)c8CC[C@@H]7c7ccccc7)cc6Cl)CC5)CC4)ccc3C2=O)C(=O)N1 [II-64]	16
O=C1CC[C@H](N2Cc3cc(N4CCN(CC5CCN(c6ccc([C@@H]7c8ccc(O)c(Cl)c8CC[C@@H]7c7ccccc7)cc6)CC5)CC4)ccc3C2=O)C(=O)N1 [II-65]	4
Cc1cc(F)cc(C)c1[C@@H]1CCc2cc(O)ccc2[C@@H]1c1ccc(N2CCC(CN3CCN(c4ccc5c(c4)CN([C@H]4CCC(=O)NC4=O)C5=O)CC3)CC2)cc1 [II-71]	≥ 10000
Cc1cc(F)cc(C)c1[C@H]1CCc2cc(O)ccc2[C@H]1c1ccc(N2CCC(CN3CCN(c4ccc5c(c4)CN([C@H]4CCC(=O)NC4=O)C5=O)CC3)CC2)cc1 [II-72]	≥ 10000
Cc1cc(F)cc(F)c1[C@@H]1CCc2cc(O)ccc2[C@@H]1c1ccc(N2CCC(CN3CCN(c4ccc5c(c4)CN([C@H]4CCC(=O)NC4=O)C5=O)CC3)CC2)cc1 [II-73]	361
Cc1cc(F)c([C@@H]2CCc3cc(O)ccc3[C@@H]2c2ccc(N3CCC(CN4CCN(c5ccc6c(c5)CN([C@H]5CCC(=O)NC5=O)C6=O)CC4)CC3)cc2)cc1F [II-76]	≥ 10000
O=C1CC[C@H](N2Cc3cc(N4CCN(CC5CCN(c6ccc([C@H]7c8ccc(O)cc8CC[C@H]7c7ccccc7)nc6)CC5)CC4)ccc3C2=O)C(=O)N1 [II-77]	≥ 10000
O=C1CC[C@H](N2Cc3cc(N4CCN(CC5CCN(c6ccc([C@H]7c8ccc(O)cc8CC[C@H]7c7ccccc7)cn6)CC5)CC4)ccc3C2=O)C(=O)N1 [II-79]	≥ 10000
O=C1CC[C@H](N2Cc3cc(N4CCN(CC5CCN(c6ccc([C@H]7c8ccc(O)cc8CC[C@H]7c7ccccc7)cc6F)CC5)CC4)ccc3C2=O)C(=O)N1 [II-81]	≥ 10000
O=C1CC[C@H](N2Cc3cc(N4CCN(CC5CCN(c6c(F)cc([C@H]7c8ccc(O)cc8CC[C@H]7c7ccccc7)cc6F)CC5)CC4)ccc3C2=O)C(=O)N1 [II-83]	424
O=C1CC[C@H](N2Cc3cc(N4CCN(CC5CCN(c6ccc([C@H]7c8ccc(O)cc8CC[C@H]7c7ccccc7)c(F)c6)CC5)CC4)ccc3C2=O)C(=O)N1 [II-85]	1090
O=C1CC[C@H](N2Cc3cc(N4CCN(CCC5CCN(c6ccc([C@H]7c8ccc(O)cc8CC[C@H]7c7ccccc7)cc6)CC5)CC4)ccc3C2=O)C(=O)N1 [II-98]	≥ 10000
O=C1CC[C@H](N2Cc3cc(N4CCN(CC5CCN(c6ccc([C@H]7c8ccc(O)cc8CC[C@H]7c7ccc(F)cc7)cc6)CC5)CC4)ccc3C2=O)C(=O)N1 [II-101]	≥ 10000
O=C1CC[C@H](N2Cc3cc(N4CCN(CC5CCN(c6cc(F)c([C@H]7c8ccc(O)cc8CC[C@H]7c7ccccc7)c(F)c6)CC5)CC4)ccc3C2=O)C(=O)N1 [II-103]	≥ 10000

Molecules with a lower DC50, results first:

DC50 [nM]	Compound
0.61	O=C1CCC(n2cc3cc(N4CCN(CC5CCN(c6ccc([C@@H]7c8ccc(O)cc8CO[C@@H]7c7ccccc7)cc6)CC5)CC4)ccc3n2)C(=O)N1 (stereo partly drawn) [Compound I-397, 3-(5-(4-((1-(4-((3S,4R)-7-hydroxy-3-phenylisochroman-4-yl)phenyl)piperidin-4-yl)methyl)piperazin-1-yl)-2H-indazol-2-yl)piperidine-2,6-dione]
0.83	O=C1CCC(n2ncc3cc(N4CCN(CC5CCN(c6ccc([C@@H]7c8ccc(O)cc8CO[C@@H]7c7ccccc7)cc6)CC5)CC4)ccc32)C(=O)N1 (stereo partly drawn) [Compound I-398, 3-(5-(4-((1-(4-((3S,4R)-7-hydroxy-3-phenylisochroman-4-yl)phenyl)piperidin-4-yl)methyl)piperazin-1-yl)-1H-indazol-1-yl)piperidine-2,6-dione]
1	C[C@@H]1CN(c2ccc3c(c2)CN([C@H]2CCC(=O)NC2=O)C3=O)CCN1CC1CCN(c2ccc([C@@H]3c4ccc(O)cc4CC[C@@H]3c3ccccc3)cc2)CC1 [II-2]
0.9	O=C1CC[C@H](N2Cc3cc(N4CCN(C5CCN(c6ccc([C@@H]7c8ccc(O)cc8CC[C@@H]7c7ccccc7)cc6)CC5)CC4)ccc3C2=O)C(=O)N1 [II-31]
0.15	O=C1CC[C@H](N2Cc3cc(N4CCN(C[C@H]5CC[C@H](c6ccc([C@@H]7c8ccc(O)cc8CC[C@@H]7c7ccccc7)cc6)CC5)CC4)ccc3C2=O)C(=O)N1 [II-52]
0.22	O=C1CCC(N2Cc3cc(N4CCN(CC5CCC(c6ccc([C@@H]7c8ccc(O)cc8CC[C@@H]7c7ccccc7)cc6)CC5)CC4)ccc3C2=O)C(=O)N1 (stereo partly drawn) [II-53]
0.33	O=C1CC[C@H](N2Cc3cc(N4CCN(CCCCCOc5ccc([C@@H]6c7ccc(O)cc7CC[C@@H]6c6ccccc6)cc5)CC4)ccc3C2=O)C(=O)N1 [II-66]
0.5	O=C1CC[C@H](N2Cc3cc(N4CCN(C(=O)C5CCN(c6ccc([C@@H]7c8ccc(O)cc8CC[C@@H]7c7ccccc7)cc6)CC5)CC4)ccc3C2=O)C(=O)N1 [II-68]
0.13	Cc1cc(F)cc(F)c1[C@H]1CCc2cc(O)ccc2[C@H]1c1ccc(N2CCC(CN3CCN(c4ccc5c(c4)CN([C@H]4CCC(=O)NC4=O)C5=O)CC3)CC2)cc1 [II-74]
0.73	Cc1cc(F)c([C@H]2CCc3cc(O)ccc3[C@H]2c2ccc(N3CCC(CN4CCN(c5ccc6c(c5)CN([C@H]5CCC(=O)NC5=O)C6=O)CC4)CC3)cc2)cc1F [II-75]
1.37	O=C1CC[C@H](N2Cc3cc(N4CCN(CC5CCN(c6ccc([C@@H]7c8ccc(O)cc8CC[C@@H]7c7ccccc7)nc6)CC5)CC4)ccc3C2=O)C(=O)N1 [II-78]
0.68	O=C1CC[C@H](N2Cc3cc(N4CCN(CC5CCN(c6ccc([C@@H]7c8ccc(O)cc8CC[C@@H]7c7ccccc7)cn6)CC5)CC4)ccc3C2=O)C(=O)N1 [II-80]
0.84	O=C1CC[C@H](N2Cc3cc(N4CCN(CC5CCN(c6ccc([C@@H]7c8ccc(O)cc8CC[C@@H]7c7ccccc7)cc6F)CC5)CC4)ccc3C2=O)C(=O)N1 [II-82]
0.8	O=C1CC[C@H](N2Cc3cc(N4CCN(CC5CCN(c6c(F)cc([C@@H]7c8ccc(O)cc8CC[C@@H]7c7ccccc7)cc6F)CC5)CC4)ccc3C2=O)C(=O)N1 [II-84]
0.61	O=C1CC[C@H](N2Cc3cc(N4CCN(CC5CCN(c6ccc([C@@H]7c8ccc(O)cc8CC[C@@H]7c7ccccc7)c(F)c6)CC5)CC4)ccc3C2=O)C(=O)N1 [II-86]
0.64	O=C1CC[C@H](N2Cc3cc(N4CCN(CC5CCN(c6ccc([C@@H]7c8ccc(O)cc8CC[C@@H]7c7ccc(F)cc7)cc6)CC5)CC4)ccc3C2=O)C(=O)N1 [II-94]
0.79	O=C1CC[C@H](N2Cc3cc(N4CCN(CCC5CCN(c6ccc([C@@H]7c8ccc(O)cc8CC[C@@H]7c7ccccc7)cc6)CC5)CC4)ccc3C2=O)C(=O)N1 [II-97]
0.15	O=C1CC[C@H](N2Cc3cc(N4CCN(CC5CCN(c6cc(F)c([C@@H]7c8ccc(O)cc8CC[C@@H]7c7ccccc7)c(F)c6)CC5)CC4)ccc3C2=O)C(=O)N1 [II-102]
